These results are taken from patent US20180099961A1, “PROTEIN KINASE INHIBITORS” (Princeton Drug Discovery Inc, priority 2016, published 2018).

Where two headings read alike, the source gives them in different places.

One series has as its target T1, ACK (Homo sapiens, UniProt Q07912).
T1 construct: purchased Carna Biosciences
Put plainly: Off-chip Mobility Shift Assay. In kind it is biochemical. The conditions noted are these: read-out: IC50, recombinant ACK activity.

A further series has as its target T2, BTK (Homo sapiens, UniProt Q06187).
T2 construct: purchased Carna Biosciences
Put plainly: Off-chip Mobility Shift Assay. The conditions noted are these: read-out: IC50, recombinant BTK activity. In kind it is biochemical.

Series [1] in a line: Metabolic stability in human liver microsomes. In kind it is in vitro ADME. Particulars: for metabolic stability as compared to dasatinib: human liver microsomes; for microsomal CLint at 1 μM / half-life at 1 μM: human, liver microsomes, human liver microsomes 0.5 mg/mL, NADPH and UDPGA, 37° C.; for microsomal CLint at 1 μM: read-out: CLint (intrinsic clearance); for half-life at 1 μM: read-out: In vitro t1/2. On the procedure: FIG. 1. Metabolic stability of compounds in human liver microsomal incubations. […] Concentrations at specified times were determined by LC-MS/MS.
The incubation reactions at various time points were quenched by adding 2× volumes of acetonitrile containing 100 nM reserpine. The quenched incubation samples were centrifuged at 4000 RPM for 10 min, and the supernatants injected for LC/MS/MS analysis. LC/MS/MS analysis was carried out on a AB Sciex 4000 Q Trap LC/MS/MS system coupled with Shimadzu Prominence UFLCXR 20 series (including a CBM-20A controller, two LC-20ADXR solvent delivery units, SIL-20AC HT autosampler, CTO-20A column oven, and a SPD-20A UV detector).

In the next series the target is T3, PIK3CA/PIK3R1 (Homo sapiens, UniProt P42336).
T3 construct: purchased Carna Biosciences
Put plainly: Off-chip Mobility Shift Assay. In kind it is biochemical. The conditions noted are these: read-out: IC50, recombinant PIK3CA/PIK3R1 activity.

Another series deals with T4, PDGFRα (Homo sapiens, UniProt P16234).
T4 construct: purchased Carna Biosciences
The series is described as follows: Off-chip Mobility Shift Assay. In kind it is biochemical. The conditions noted are these: read-out: IC50, recombinant PDGFRα activity.

Another series relates to RAF1. Put plainly: Off-chip Mobility Shift Assay. In kind it is biochemical. The conditions noted are these: 10 nM.
Series [2] can be described thus: Pharmacokinetics in Sprague-Dawley rats, 2-in-1 dosing. In kind it is in vivo. Particulars: for intravenous plasma clearance compared to dasatinib and compound III / intravenous volume of distribution compared to dasatinib and compound III: Sprague-Dawley rats; for clearance / Vd: single dose (Table 3); for clearance: read-out: CL (plasma clearance) (converted); for Vd: read-out: V (volume of distribution); for AUC(0-inf) / AUC(0-t) / half-life / Cmax / Tmax: single dose, plasma (Table 3); for half-life: read-out: t½ (converted). As for the experimental part:
Sprague-Dawley rats (approximate weight 275-300 g, N=3) were dosed intravenously at 5 mL/kg and orally at 10 mL/kg with the above dosing solutions. Blood samples were collected into tubes containing EDTA as the anticoagulant at 0, 0.25 (intravenous only), 0.5, 1, 2, 4, 8, 10, and 24 h post-dosing, and plasma samples were prepared by centrifugation. The plasma samples were mixed with 3× volumes of acetonitrile containing 100 nM reserpine as the internal standard, and centrifuged at 4000 RPM for 15 min. The supernatants were injected for LC/MS analysis which were carried out on a AB Sciex 4000 Q Trap LC/MS/MS system coupled with Shimadzu Prominence UFLCXR 20 series (including a CBM-20A controller, two LC-20ADXR solvent delivery units, SIL-20AC HT autosampler, CTO-20A column oven, and a SPD-20A UV detector). The samples were separated on a Phenomenex Columbus column (C18, 4 μm, 50×2 mm) eluted with two solvent systems: 2 mM ammonium acetate in water containing 0.1% formic acid (A) and methanol (B) at a linear gradient starting with 25% B. Electrospray ionization in positive mode was used to acquire LC/MS/MS data.

The target of a further series is T5, ABL (Homo sapiens, UniProt P00519).
T5 construct: purchased Carna Biosciences
The series is described as follows: Off-chip Mobility Shift Assay. In kind it is biochemical. The conditions noted are these: read-out: IC50, recombinant ABL activity.

A further series deals with T6, ABL(E255K) (Homo sapiens, UniProt P00519, E255K).
T6 construct: purchased Carna Biosciences
The series is described as follows: Off-chip Mobility Shift Assay. In kind it is biochemical. Particulars: read-out: IC50, recombinant ABL (E255K) activity.

Series [3] is described as follows: Lung tissue and plasma concentration ratios in mice. In kind it is in vivo, CD-1 mouse. The conditions noted are these: single oral dose 5 mg/kg, 2-in-1 with dasatinib, all time points tested. On the procedure:
CD-1 mouse (approximate weight 30 g, N=3) were dosed by oral gavage at 10 mL/kg. Blood samples were collected into tubes containing EDTA as the anticoagulant at 1, 2, 4, 10 h post-dosing for Compound X, and predose, 1, 2, 3, 8, 10 and 24 h post-dosing for Compound XI. The plasma samples were prepared by centrifugation. Lung samples were also collected at each of the above time points. The lung samples were homogenated in 4× distilled water (v/w). The plasma samples and the homogenated lung tissue samples were mixed with 3× volumes of acetonitrile containing 100 nM reserpine as the internal standard, and centrifuged at 4000 RPM for 15 min. The supernatants were injected for LC/MS analysis which were carried out on a AB Sciex 4000 Q Trap LC/MS/MS system coupled with Shimadzu Prominence UFLCXR 20 series (including a CBM-20A controller, two LC-20ADXR solvent delivery units, SIL-20AC HT autosampler, CTO-20A column oven, and a SPD-20A UV detector). The samples were separated on a Phenomenex Columbus column (C18, 4 μm, 50×2 mm) eluted with two solvent systems: 2 mM ammonium acetate in water containing 0.1% formic acid (A) and methanol (B) at a linear gradient starting at 25%. Electrospray ionization in positive mode was used to acquire LC/MS/MS data.

For another series, the target named is T7, BTK (C481S) (Homo sapiens, UniProt Q06187, C481S).
T7 construct: purchased Carna Biosciences
The series is described as follows: Off-chip Mobility Shift Assay. In kind it is biochemical. Particulars: read-out: IC50, recombinant BTK (C481S) activity.

The mark [4] stands for this setting: Sprague-Dawley, rat, plasma, iv, 1 mg/kg, intravenous 1 mg/kg.
The mark [5] stands for this setting: Sprague-Dawley, rat, plasma, po, 5 mg/kg, PO 5 mg/kg.
[6] abbreviates: Sprague-Dawley, rat, PO 5 mg/kg.

T2 sequence (Q06187 whole entry): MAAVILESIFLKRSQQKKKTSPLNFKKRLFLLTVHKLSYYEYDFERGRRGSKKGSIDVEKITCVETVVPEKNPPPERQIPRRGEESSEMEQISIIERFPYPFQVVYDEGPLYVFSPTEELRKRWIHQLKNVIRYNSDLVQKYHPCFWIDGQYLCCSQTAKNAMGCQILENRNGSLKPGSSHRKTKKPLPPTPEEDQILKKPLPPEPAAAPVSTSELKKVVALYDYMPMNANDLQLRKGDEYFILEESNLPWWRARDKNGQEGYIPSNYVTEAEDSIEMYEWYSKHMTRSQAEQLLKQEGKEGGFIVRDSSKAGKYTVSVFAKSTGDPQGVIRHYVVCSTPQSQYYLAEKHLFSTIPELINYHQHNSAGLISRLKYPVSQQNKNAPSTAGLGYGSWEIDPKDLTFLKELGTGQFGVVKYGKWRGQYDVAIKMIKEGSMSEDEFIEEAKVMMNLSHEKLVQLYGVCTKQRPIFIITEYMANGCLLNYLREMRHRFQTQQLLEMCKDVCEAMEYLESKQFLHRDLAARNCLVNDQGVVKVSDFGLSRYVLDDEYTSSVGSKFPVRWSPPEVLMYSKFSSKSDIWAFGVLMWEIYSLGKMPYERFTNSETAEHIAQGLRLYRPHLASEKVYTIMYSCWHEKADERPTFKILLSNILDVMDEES
T5 sequence (P00519 whole entry): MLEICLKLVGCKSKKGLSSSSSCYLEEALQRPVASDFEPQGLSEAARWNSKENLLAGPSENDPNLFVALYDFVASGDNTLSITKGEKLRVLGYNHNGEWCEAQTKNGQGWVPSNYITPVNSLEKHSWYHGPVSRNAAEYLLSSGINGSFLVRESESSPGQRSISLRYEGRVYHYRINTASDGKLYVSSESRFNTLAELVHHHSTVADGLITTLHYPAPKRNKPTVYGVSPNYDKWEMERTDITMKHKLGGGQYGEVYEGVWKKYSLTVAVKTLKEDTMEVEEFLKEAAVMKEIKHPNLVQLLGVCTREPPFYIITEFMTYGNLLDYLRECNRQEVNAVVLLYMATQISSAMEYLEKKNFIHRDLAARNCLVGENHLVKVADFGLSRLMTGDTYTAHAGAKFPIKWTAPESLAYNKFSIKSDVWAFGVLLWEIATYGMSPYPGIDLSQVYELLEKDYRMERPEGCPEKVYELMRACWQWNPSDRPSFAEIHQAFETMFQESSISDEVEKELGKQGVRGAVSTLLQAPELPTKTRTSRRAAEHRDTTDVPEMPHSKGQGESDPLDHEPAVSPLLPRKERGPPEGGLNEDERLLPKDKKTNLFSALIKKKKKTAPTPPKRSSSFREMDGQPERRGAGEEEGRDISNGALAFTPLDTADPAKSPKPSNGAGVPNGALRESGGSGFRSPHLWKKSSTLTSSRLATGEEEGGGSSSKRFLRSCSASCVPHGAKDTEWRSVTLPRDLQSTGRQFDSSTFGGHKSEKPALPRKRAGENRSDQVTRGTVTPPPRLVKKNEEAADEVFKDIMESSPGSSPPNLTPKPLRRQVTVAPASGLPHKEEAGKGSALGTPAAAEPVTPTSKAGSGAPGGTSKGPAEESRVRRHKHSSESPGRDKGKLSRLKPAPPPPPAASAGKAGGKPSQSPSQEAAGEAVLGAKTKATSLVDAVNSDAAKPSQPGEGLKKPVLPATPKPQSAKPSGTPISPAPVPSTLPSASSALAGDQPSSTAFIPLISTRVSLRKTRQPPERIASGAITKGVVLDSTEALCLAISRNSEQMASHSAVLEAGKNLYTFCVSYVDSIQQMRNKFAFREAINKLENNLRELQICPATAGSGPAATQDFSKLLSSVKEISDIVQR
T6 sequence (P00519 whole entry E255K): as the sequence (P00519 whole entry) above, with E255K counted along it
T7 sequence (Q06187 whole entry C481S): as the sequence (Q06187 whole entry) above, with C481S counted along it
T4 sequence (P16234 24-1089): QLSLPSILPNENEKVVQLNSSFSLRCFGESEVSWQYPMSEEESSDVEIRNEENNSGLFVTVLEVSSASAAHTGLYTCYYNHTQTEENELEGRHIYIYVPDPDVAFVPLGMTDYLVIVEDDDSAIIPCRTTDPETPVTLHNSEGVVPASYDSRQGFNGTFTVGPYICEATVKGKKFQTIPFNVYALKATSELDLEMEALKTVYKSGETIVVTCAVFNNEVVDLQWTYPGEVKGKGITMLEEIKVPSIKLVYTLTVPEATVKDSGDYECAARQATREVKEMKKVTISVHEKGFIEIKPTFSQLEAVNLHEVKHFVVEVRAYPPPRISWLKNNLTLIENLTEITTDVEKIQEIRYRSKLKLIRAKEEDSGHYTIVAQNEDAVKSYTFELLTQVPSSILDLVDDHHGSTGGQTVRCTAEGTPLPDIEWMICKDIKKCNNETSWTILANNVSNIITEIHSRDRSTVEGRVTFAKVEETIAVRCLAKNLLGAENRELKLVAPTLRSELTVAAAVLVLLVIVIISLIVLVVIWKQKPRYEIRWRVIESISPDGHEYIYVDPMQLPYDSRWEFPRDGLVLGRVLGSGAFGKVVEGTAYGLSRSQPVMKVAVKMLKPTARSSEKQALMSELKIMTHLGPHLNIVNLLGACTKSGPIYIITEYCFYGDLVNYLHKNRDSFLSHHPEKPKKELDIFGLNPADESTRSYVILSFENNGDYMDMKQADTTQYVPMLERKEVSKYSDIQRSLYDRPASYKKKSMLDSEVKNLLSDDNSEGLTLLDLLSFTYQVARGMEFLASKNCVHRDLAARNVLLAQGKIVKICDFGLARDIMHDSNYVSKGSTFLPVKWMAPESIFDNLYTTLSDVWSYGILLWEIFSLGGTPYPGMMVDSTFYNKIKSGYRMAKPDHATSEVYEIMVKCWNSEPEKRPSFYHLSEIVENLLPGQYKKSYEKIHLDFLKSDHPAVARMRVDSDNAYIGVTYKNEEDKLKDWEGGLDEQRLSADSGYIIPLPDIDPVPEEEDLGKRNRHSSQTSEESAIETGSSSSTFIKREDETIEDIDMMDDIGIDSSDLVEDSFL
T1 sequence (Q07912 whole entry): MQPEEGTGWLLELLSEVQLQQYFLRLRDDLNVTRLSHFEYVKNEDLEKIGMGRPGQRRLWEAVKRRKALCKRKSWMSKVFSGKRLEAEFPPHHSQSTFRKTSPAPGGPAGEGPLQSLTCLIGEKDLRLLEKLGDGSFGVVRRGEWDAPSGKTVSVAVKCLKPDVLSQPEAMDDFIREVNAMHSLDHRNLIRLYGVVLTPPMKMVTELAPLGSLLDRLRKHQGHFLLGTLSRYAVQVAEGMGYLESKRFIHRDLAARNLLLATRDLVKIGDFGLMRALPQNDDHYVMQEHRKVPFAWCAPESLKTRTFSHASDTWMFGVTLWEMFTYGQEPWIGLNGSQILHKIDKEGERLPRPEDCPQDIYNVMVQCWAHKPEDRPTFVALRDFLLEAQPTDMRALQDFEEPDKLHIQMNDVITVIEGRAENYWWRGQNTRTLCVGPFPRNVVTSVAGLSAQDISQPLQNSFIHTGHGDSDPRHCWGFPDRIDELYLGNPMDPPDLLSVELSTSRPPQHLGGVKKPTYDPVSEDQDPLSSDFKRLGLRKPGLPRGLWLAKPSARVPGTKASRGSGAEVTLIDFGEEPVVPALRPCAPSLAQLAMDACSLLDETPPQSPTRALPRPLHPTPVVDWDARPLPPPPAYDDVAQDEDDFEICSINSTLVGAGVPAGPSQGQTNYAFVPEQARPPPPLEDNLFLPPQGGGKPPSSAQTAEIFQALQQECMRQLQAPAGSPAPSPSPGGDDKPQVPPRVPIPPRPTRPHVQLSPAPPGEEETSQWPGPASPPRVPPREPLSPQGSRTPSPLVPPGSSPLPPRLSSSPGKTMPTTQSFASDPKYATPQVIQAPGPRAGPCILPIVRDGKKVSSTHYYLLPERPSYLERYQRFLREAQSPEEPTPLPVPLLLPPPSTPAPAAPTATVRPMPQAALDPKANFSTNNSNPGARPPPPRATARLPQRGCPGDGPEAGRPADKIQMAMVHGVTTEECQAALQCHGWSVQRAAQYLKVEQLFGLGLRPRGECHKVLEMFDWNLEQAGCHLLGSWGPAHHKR

As for `[2H]c1cc(C)c(NC(=O)c2cnc(Nc3cc(N4CCCCC4)nc(C)n3)s2)c(Cl)c1` [Compound I, N-(2-chloro-4-deuterio-6-methyl-phenyl)-2-[[2-methyl-6-(1-piperidyl)pyrimidin-4-yl]amino]thiazole-5-carboxamide], the IC50 was roughly 0.5 nM on ACK, roughly 0.2 nM on BTK, roughly 12 nM at PIK3CA/PIK3R1 and roughly 1.4 nM at PDGFRα. The “metabolic stability as compared to dasatinib” value in series [1] is “significantly greater stability”. Also, the “inhibition of RAF1” value in the series on RAF1 is less than 50%.

As a reminder, the clearance is the rate of elimination divided by the concentration. By AUC(0-inf) is commonly meant the area under the concentration-time curve extrapolated to infinity. Read a low AUC(0-inf) as less exposure. What is called AUC(0-t) is the area under the concentration-time curve up to a stated or last time point. A high value points to more exposure. Broadly, the Cmax is the highest concentration seen after dosing. Broadly, the Tmax is the time from dosing to the highest level. With `Cc1nc(Nc2ncc(C(=O)Nc3c(C)cccc3Cl)s2)cc(N2CC[C@H](O)C2)n1` [Compound X, N-(2-chloro-6-methylphenyl)-2-[[2-methyl-6-((S)-3-hydroxypyrrolidin-1-yl)pyrimidin-4-yl]amino]thiazole-5-carboxamide], in [2], the “intravenous plasma clearance compared to dasatinib and compound III” value is “much lower”; the “intravenous volume of distribution compared to dasatinib and compound III” value is given as “significantly lower”. For the same molecule, in [2] (setting [4]), the clearance is 6.75 mL/min/kg, the Vd came out at 1 L/kg, the AUC(0-inf) came to 2520 ± 446 ng·h/mL and the exposure AUC(0-t) was determined as 2520 ± 446 ng·h/mL. The half-life in series [2] (setting [4]) is 1.6 ± 0.2 h. Further, in series [2] (setting [5]), the AUC(0-inf) was 1200 ± 349 ng·h/mL, the AUC(0-t) came to 1120 ± 369 ng·h/mL and the half-life is 6.8 ± 4.1 h. Further, in series [2] (setting [6]), the Cmax is 93 ± 101 ng/mL and the time of peak concentration (Tmax) was determined as 0.5 h. Moreover, the IC50 at BTK is less than 1 nM. In series [1], the “metabolic stability as compared to dasatinib” value is reported as “significantly greater stability”, the microsomal CLint at 1 μM was less than 24 µL/min/mg and the half-life at 1 μM is greater than 0.983 h. In addition, the IC50 on ABL was less than 1 nM. At ABL(E255K), the IC50 was less than 1 nM. The “ratio of lung tissue concentration to plasma concentration as compared to dasatinib” value in series [3] is “significantly lower”. Further, at BTK (C481S), the IC50 was less than 1 nM.

One may read the bioavailability as the share of a dose that reaches the circulation, judged against a reference dose that is usually intravenous. In the case of `Cc1nc(Nc2ncc(C(=O)Nc3c(C)cccc3Cl)s2)cc(N2CC[C@@H](O)C2)n1` [Compound XI, N-(2-chloro-6-methylphenyl)-2-[[2-methyl-6-((R)-3-hydroxypyrrolidin-1-yl)pyrimidin-4-yl]amino]thiazole-5-carboxamide], in [2], the “intravenous plasma clearance compared to dasatinib and compound III” value is reported as “much lower”; the “intravenous volume of distribution compared to dasatinib and compound III” value is recorded as “significantly lower”. For the same molecule, in series [2] (setting [4]), the clearance is 6.77 mL/min/kg, the Vd was determined as 1 L/kg, the AUC(0-inf) worked out at 2480 ± 243 ng·h/mL and the AUC(0-t) was found to be 2480 ± 243 ng·h/mL. Besides, in [2] (setting [4]), the half-life was 1.6 ± 0.2 h. Moreover, in series [2] (setting [5]), the total exposure AUC(0-inf) came to 1500 ± 273 ng·h/mL, the AUC(0-t) is 1420 ± 343 ng·h/mL and the half-life is 6 ± 3.6 h. Besides, the bioavailability in series [2] (Sprague-Dawley, rat, plasma, PO 5 mg/kg versus intravenous 1 mg/kg, AUCinf dose normalized (Table 3), read-out: F (percent oral bioavailability)) worked out at 24 ± 33.1%. Moreover, in [2] (setting [6]), the Cmax was determined as 102 ± 86 ng/mL and the Tmax amounted to 0.5 h. The IC50 at BTK was less than 1 nM. In series [1], the “metabolic stability as compared to dasatinib” value was “significantly greater stability”, the microsomal CLint at 1 μM was less than 24 µL/min/mg and the half-life at 1 μM is greater than 0.983 h. Moreover, at ABL, the IC50 was less than 1 nM. Besides, the IC50 on ABL(E255K) is less than 1 nM. Besides, the “ratio of lung tissue concentration to plasma concentration as compared to dasatinib” value in series [3] is “significantly lower”. Besides, the IC50 on BTK (C481S) is less than 1 nM.
